The target of assay [1] is T1, Carbonate dehydratase (Sulfurihydrogenibium sp. (strain YO3AOP1), UniProt B2V8E3).
T1 sequence (B2V8E3 whole entry): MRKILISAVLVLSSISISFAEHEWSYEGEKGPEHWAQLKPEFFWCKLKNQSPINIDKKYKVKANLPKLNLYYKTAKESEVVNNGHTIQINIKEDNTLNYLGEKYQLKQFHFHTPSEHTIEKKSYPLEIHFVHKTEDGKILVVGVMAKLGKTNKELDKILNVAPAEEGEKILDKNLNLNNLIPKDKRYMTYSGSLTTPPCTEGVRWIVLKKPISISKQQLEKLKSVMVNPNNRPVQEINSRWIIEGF
Description: Inhibition of recombinant Sulfurihydrogenibium yellowstonense YO3AOP1 carbonic anhydrase by stopped flow CO2 hydrase assay

In assay [2] the target is Carbonic anhydrase, alpha family (Thiomicrospira crunogena, UniProt Q31FD6).
Description: Inhibition of recombinant Thiomicrospira crunogena XCL-2 carbonic anhydrase by stopped flow CO2 hydrase assay

In general, Ki refers to a dissociation constant, usually derived from enzyme kinetics or from competition with a known ligand. Higher therefore signals weaker binding.

Each structure is given as a SMILES string.

Carbonic anhydrase, alpha family, sequence (Q31FD6 whole entry): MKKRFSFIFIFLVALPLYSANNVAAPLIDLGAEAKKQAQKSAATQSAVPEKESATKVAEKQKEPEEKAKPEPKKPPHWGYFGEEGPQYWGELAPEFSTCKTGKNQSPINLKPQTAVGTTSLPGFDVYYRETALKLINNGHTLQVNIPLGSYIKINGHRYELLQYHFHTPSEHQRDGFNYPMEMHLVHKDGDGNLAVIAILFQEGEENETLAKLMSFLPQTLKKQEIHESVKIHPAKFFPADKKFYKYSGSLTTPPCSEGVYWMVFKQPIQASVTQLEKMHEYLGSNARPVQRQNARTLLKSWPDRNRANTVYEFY

`O=C1NS(=O)(=O)c2ccccc21` [SACCHARIN]: the values for the Ki in assay [1] and in assay [2] were 876 nM and 933 nM, respectively.
On to `NNc1ccccc1S(N)(=O)=O`, for which the Ki in assay [1] stood at 695 nM; in assay [2] it was 71.4 nM.
For `NS(=O)(=O)c1ccc(CO)cc1`, in that order: 493 nM and 21.2 nM.
With `NCc1ccc(S(N)(=O)=O)cc1` [MAFENIDE], the figures for the Ki in assay [1] and in assay [2] were 350 nM and 202 nM, respectively.
For `Nc1nccc(Nc2ccc(S(N)(=O)=O)cc2)n1`, in that order: 6.5 nM and 92.3 nM.
On to `Nc1ccc(S(N)(=O)=O)cc1I`, for which, in assay [1], the Ki stood at 44.8 nM. In other words, the double-digit nanomolar range.
Turning to `Nc1ccc(S(N)(=O)=O)cc1` [SULFANILAMIDE], the figures for the Ki in assay [1] and in assay [2] were 652 nM and 628 nM, respectively.
For `Nc1nnc(S(N)(=O)=O)s1`, the Ki was 137 nM in assay [1] and 27.9 nM in assay [2].
For `Nc1ccc(S(=O)(=O)Nc2nnc(S(N)(=O)=O)s2)cc1`, in that order: 5.5 nM and 5.6 nM.
`CCN[C@H]1CN(CCCOC)S(=O)(=O)c2sc(S(N)(=O)=O)cc21` [BRINZOLAMIDE]: the values for the Ki in assay [1] and in assay [2] were 12.3 nM and 4.2 nM, respectively.
Turning to `Nc1ccc(S(N)(=O)=O)cc1Br`, the Ki was 75.7 nM in assay [1] and 545 nM in assay [2].
`NS(=O)(=O)c1nnc(NS(=O)(=O)c2ccccc2)s1` [BENZOLAMIDE]: the Ki in assay [2] is 2.7 nM.
Turning to `Nc1ccc(S(N)(=O)=O)cc1F`, the Ki in assay [1] was 68.3 nM; in assay [2] it was 82.1 nM.
For `Cc1ccc(S(N)(=O)=O)cc1` [P-TOLUENESULFONAMIDE], the Ki in assay [1] stood at 848 nM; in assay [2] it was 244 nM.
For `Nc1ccc(S(N)(=O)=O)cc1Cl`, the values for the Ki in assay [1] and in assay [2] were 41.2 nM and 79.7 nM, respectively.
For `Nc1ccc(S(=O)(=O)NCc2ccc(S(N)(=O)=O)cc2)cc1`, in that order: 7.8 nM and 454 nM.
In assay [2], `Nc1cc(Cl)c(S(N)(=O)=O)cc1S(N)(=O)=O` registered a Ki of 54.4 nM.
As for `NS(=O)(=O)c1ccc(CCO)cc1`, the Ki is 162 nM in assay [1] and 31.5 nM in assay [2].
In assay [2], `NS(=O)(=O)c1nc2ccc(O)cc2s1` came in with a Ki of 40.7 nM.
On the same count and under the same terms, with `Nc1cc(C(F)(F)F)c(S(N)(=O)=O)cc1S(N)(=O)=O` [2,4-DISULFAMYLTRIFLUOROMETHYLANILINE] the figure was 67.2 nM.
Turning to `NS(=O)(=O)c1nnc(-c2ccccc2Cl)s1`, the Ki is 70.1 nM in assay [1] and 2.5 nM in assay [2].
For `Nc1ccc(S(=O)(=O)NCCc2ccc(S(N)(=O)=O)cc2)cc1`, in that order: 9.7 nM and 402 nM.
`NCCc1ccc(S(N)(=O)=O)cc1` had a Ki in assay [2] of 488 nM. This lies in the sub-micromolar range.
In assay [2], `CCOc1ccc2nc(S(N)(=O)=O)sc2c1` [ETHOXZOLAMIDE] came in with a Ki of 4.1 nM.
Consider `CC1(C)O[C@@H]2[C@@H](CO[C@@]3(COS(N)(=O)=O)OC(C)(C)O[C@@H]23)O1` [TOPIRAMATE], for which the Ki was found to be 6.6 nM in assay [1] and 769 nM in assay [2].
For `Cn1nc(S(N)(=O)=O)sc1=N`, the results for the Ki in assay [1] and in assay [2] were 433 nM and 4.8 nM, respectively.
For `Cc1ccc(-c2cc(C(F)(F)F)nn2-c2ccc(S(N)(=O)=O)cc2)cc1` [CELECOXIB], in that order: 6.9 nM and 981 nM.
For the molecule `NNc1ccc(S(N)(=O)=O)cc1`, the Ki came out at 803 nM in assay [1] and 84.5 nM in assay [2].
For `NS(=O)(=O)c1ccc(C(=O)O)cc1` [CARZENIDE], in that order: 72.4 nM and 85.2 nM.

The values are drawn from ChEMBL document CHEMBL3745715, “Sulfonamide inhibition studies of the α-carbonic anhydrase from the gammaproteobacterium Thiomicrospira crunogena XCL-2, TcruCA” (Bioorg Med Chem Lett, 2016).
